According to US20260365641A1, “Aromatic Acetylene Derivative, Preparation Method Therefor, And Use Thereof” (Zhejiang Hisun Pharmaceutical Co., Ltd., priority 2022, published 2026):
Converted amounts (≈) assume the structure as drawn.

Tests used:
[1] = molecular target: T1, recombinant Pseudomonas aeruginosa LpxC (Pseudomonas aeruginosa, UniProt P47205); assay: Inhibition of enzymatic activity of recombinant Pseudomonas aeruginosa LpxC in vitro; format: biochemical; settings: 5 nM LpxC; substrate UDP-3-O—(R-3-hydroxydecanoyl)-GlcNAc; 25 °C, 120 minutes; fluorescamine readout
T1 construct: purchased Signalway Antibody AP74647-2
T1 sequence (P47205 1-303): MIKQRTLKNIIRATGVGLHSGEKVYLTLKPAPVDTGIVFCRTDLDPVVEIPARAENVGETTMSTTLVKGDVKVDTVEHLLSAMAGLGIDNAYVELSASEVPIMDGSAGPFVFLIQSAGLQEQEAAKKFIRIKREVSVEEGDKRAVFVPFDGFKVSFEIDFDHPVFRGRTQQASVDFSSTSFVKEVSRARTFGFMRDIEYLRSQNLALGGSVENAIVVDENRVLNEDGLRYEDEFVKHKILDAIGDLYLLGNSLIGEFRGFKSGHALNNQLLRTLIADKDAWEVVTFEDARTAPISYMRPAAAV
Procedure: The following method was used to determine degrees of inhibition of the compounds of the present invention on the enzymatic activity of recombinant Pseudomonas aeruginosa LpxC in vitro.
The test process was briefly described as follows: the tested compound was first dissolved in DMSO to prepare a 10 mM storage solution. The reaction was carried out in a 96-well microplate. Firstly, 20 μL of recombinant Pseudomonas aeruginosa LpxC (purchased from Signalway Antibody, article number AP74647-2) was added into the wells, and the final concentrations were 5 nM respectively. 5 μL of the compound to be tested was added, diluted in 4-fold, with 8 concentration points, and the concentration range was 0.61-10000 nM. 5 μL of LpxC substrate UDP-3-O—(R-3-hydroxydecanoyl)-GlcNAc (purchased from Biosynth Carbosynth, article number mu75071) was added, wherein a final concentration of the substrate was […], and the substrate was incubated at 25 °C for 120 minutes. Subsequently, 20 μL of 2.0 mg/mL fluorescamine (purchased from sigma aldrich, article number F9015, wherein a solvent was dimethylformamide/acetonitrile (1:1)) was added to the reaction system, mixed evenly and reacted for 10 minutes. Finally, 50 μL of 200 mM sodium phosphate buffer solution (pH 8.0) was added to stop the reaction, and a microplate reader (BMG) was used for reading. An excitation wavelength and an emission wavelength were 390 nm and 495 nm respectively. Compared with the fluorescence intensity ratio of a control group (0.1% DMSO), the percentage inhibition rates of the compounds at each concentration were calculated, and the IC50 values of the compounds were obtained by performing nonlinear regression analysis with logarithmic value of the compound concentration-inhibition rate by GraphPad Prism 5 software, which can be seen in Table 1.

[2] = test system: E. coli ATCC 25922; assay: Antibacterial activity, minimum inhibitory concentration (MIC) in vitro, broth dilution; format: cell-based; settings: Escherichia coli, ATCC25922, 5×10^5 cfu/mL, 35 °C, 18-24 hours
Procedure: (§1) The minimum inhibitory concentration (MIC) in vitro was determined according to CLSI's guidelines, and a minimal broth dilution method was used.
(§2) The test process was briefly described as follows: the tested compound was dissolved in DMSO to prepare a storage solution of […], and then prepared into 11 two-fold-diluted 100× high-concentration working liquids (a final concentration of the system was 64 μg/mL to 0.06 μg/mL) by DMSO. Stains (K. pneumoniae ATCC13883, K. pneumoniae ATCC51504 and E. coli ATCC 25922) frozen at −80 °C with glycerin were inoculated to a solid agar culture medium, placed into an incubator for culturing for 18-24 hours at 35 °C to finish the preparation work of the strains. A proper amount of solid plate culture was collected, re-suspended in normal saline, and uniformly mixed. The turbidity of the bacterial suspension was adjusted to a proper turbidity by a turbidity meter, containing about 1×10^8 cfu/mL of bacteria. Then, the turbidity-regulated bacterial suspension was diluted with a test culture medium (type: CAMHIIB, purchased from BD company) to a bacterial concentration of 5×10^5 cfu/mL, thus finishing the preparation of an inoculation solution. 198 μL of the inoculation solution was inoculated into a 96-well plate, and added with 2 μL 100× high concentration working liquid of the compound, then the 96-well plate was placed at 35 °C for culturing for 18-24 hours.

[3] = test system: K. pneumoniae ATCC51504; assay: as above; format: cell-based; settings: Klebsiella pneumoniae, 5×10^5 cfu/mL, 35 °C, 18-24 hours
Procedure: as §1, §2

Compound: C[C@H](O)c1nccn1Cc1cc(-c2ccc(C#CC3CC4(CCN(C(=O)CO)C4)C3)cc2)on1 (stereo partly drawn) [Example 28, (S)-2-hydroxy-1-(2-((4-(3-((2-(1-hydroxyethyl)-1H-imidazol-1-yl)methyl)isoxazol-5-yl)phenyl)ethynyl)-6-azaspiro[3.4]octan-6-yl)ethan-1-one]
- IC50 [1]: 14.1 nM

Compound: C[C@H](O)c1nccn1Cc1cc(-c2ccc(C#CC3CC4(CCN(C5CNC5)CC4)C3)cc2)on1 [Example 30, (S)-1-(1-((5-(4-((7-(azetidin-3-yl)-7-azaspiro[3.5]nonan-2-yl)ethynyl)phenyl)isoxazol-3-yl)methyl)-1H-imidazol-2-yl)ethan-1-ol]
- IC50 [1]: 16.2 nM

Compound: C[C@H](O)c1nccn1Cc1cc(-c2ccc(C#CC3CC4(C3)CN(C(=O)CC#N)C4)cc2)on1 [Example 32, (S)-3-(6-((4-(3-((2-(1-hydroxyethyl)-1H-imidazol-1-yl)methyl)isoxazol-5-yl)phenyl)ethynyl)-2-azaspiro[3.3]heptan-2-yl)-3-oxopropanenitrile]
- IC50 [1]: 22.5 nM

Compound: C[C@H](O)c1nccn1Cc1cc(-c2ccc(C#CC3=CCN(C(=O)C4[C@H]5CCC[C@@H]45)CC3)cc2)on1 (stereo partly drawn) [Example 35, ((1R,5S)-bicyclo[3.1.0]hexan-6-yl)(4-((4-(3-((2-((S)-1-hydroxyethyl)-1H-imidazol-1-yl)methyl)isoxazol-5-yl)phenyl)ethynyl)-3,6-dihydropyridin-1(2H)-yl)methanone]
- MIC [2]: 2 µg/mL (≈ 4.14 µM)
- MIC [3]: 2 µg/mL (≈ 4.14 µM)

Compound: C[C@H](O)c1nccn1Cc1cc(-c2ccc(C#CC3=CCN(C(=O)C4CC4)CC3)cc2)on1 [Example 36, (S)-cyclopropyl(4-((4-(3-((2-(1-hydroxyethyl)-1H-imidazol-1-yl)methyl)isoxazol-5-yl)phenyl)ethynyl)-3,6-dihydropyridin-1(2H)-yl)methanone]
- MIC [2]: 1 µg/mL (≈ 2.26 µM)
- MIC [3]: 0.25 µg/mL (≈ 0.565 µM)
- IC50 [1]: 19 nM

Compound: C[C@H](O)c1nccn1Cc1cc(-c2ccc(C#CC3=CCN(C(=O)Cn4cncn4)CC3)cc2)on1 [Example 37, (S)-1-(4-((4-(3-((2-(1-hydroxyethyl)-1H-imidazol-1-yl)methyl)isoxazol-5-yl)phenyl)ethynyl)-3,6-dihydropyridin-1(2H)-yl)-2-(1H-1,2,4-triazol-1-yl)ethan-1-one]
- MIC [2]: 2 µg/mL (≈ 4.14 µM)
- MIC [3]: 2 µg/mL (≈ 4.14 µM)

Compound: C[C@H](O)c1nccn1Cc1cc(-c2ccc(C#CC3=CCN(C(=O)c4cnccn4)CC3)cc2)on1 [Example 38, (S)-(4-((4-(3-((2-(1-hydroxyethyl)-1H-imidazol-1-yl)methyl)isoxazol-5-yl)phenyl)ethynyl)-3,6-dihydropyridin-1(2H)-yl)(pyrazin-2-yl)methanone]
- MIC [2]: 0.25 µg/mL (≈ 0.52 µM)
- MIC [3]: 0.5 µg/mL (≈ 1.04 µM)
- IC50 [1]: 22.7 nM

Compound: C[C@H](O)c1nccn1Cc1cc(-c2ccc(C#CC3=CCN(C(=O)c4ccnnc4)CC3)cc2)on1 [Example 39, (S)-(4-((4-(3-((2-(1-hydroxyethyl)-1H-imidazol-1-yl)methyl)isoxazol-5-yl)phenyl)ethynyl)-3,6-dihydropyridin-1(2H)-yl)(pyridazin-4-yl)methanone]
- MIC [2]: 2 µg/mL (≈ 4.16 µM)
- MIC [3]: 1 µg/mL (≈ 2.08 µM)
- IC50 [1]: 21.7 nM

Compound: C[C@H](O)c1nccn1Cc1cc(-c2ccc(C#CC3=CCN(C(=O)c4cncnc4)CC3)cc2)on1 [Example 40, (S)-(4-((4-(3-((2-(1-hydroxyethyl)-1H-imidazol-1-yl)methyl)isoxazol-5-yl)phenyl)ethynyl)-3,6-dihydropyridin-1(2H)-yl)(pyrimidin-5-yl)methanone]
- MIC [2]: 2 µg/mL (≈ 4.16 µM)
- MIC [3]: 0.5 µg/mL (≈ 1.04 µM)
- IC50 [1]: 21.4 nM

Compound: C[C@H](O)c1nccn1Cc1cc(-c2ccc(C#CC3=CCN(C(=O)C4CCOC4)CC3)cc2)on1 (stereo partly drawn) [Example 41, (4-((4-(3-((2-((S)-1-hydroxyethyl)-1H-imidazol-1-yl)methyl)isoxazol-5-yl)phenyl)ethynyl)-3,6-dihydropyridin-1(2H)-yl)(tetrahydrofuran-3-yl)methanone]
- MIC [2]: 1 µg/mL (≈ 2.12 µM)
- MIC [3]: 0.25 µg/mL (≈ 0.529 µM)
- IC50 [1]: 22.3 nM

Compound: C[C@H](O)c1nccn1Cc1cc(-c2ccc(C#CC3=CCN(C(=O)C4COCCN4)CC3)cc2)on1 (stereo partly drawn) [Example 42, (4-((4-(3-((2-((S)-1-hydroxyethyl)-1H-imidazol-1-yl)methyl)isoxazol-5-yl)phenyl)ethynyl)-3,6-dihydropyridin-1(2H)-yl)(morpholin-3-yl)methanone]
- MIC [2]: 4 µg/mL (≈ 8.2 µM)
- MIC [3]: 2 µg/mL (≈ 4.1 µM)

Compound: C[C@H](O)c1nccn1Cc1cc(-c2ccc(C#CC3=CCN(CCn4cncn4)CC3)cc2)on1 [Example 43, (S)-1-(1-((5-(4-((1-(2-(1H-1,2,4-triazol-1-yl)ethyl)-1,2,3,6-tetrahydropyridin-4-yl)ethynyl)phenyl)isoxazol-3-yl)methyl)-1H-imidazol-2-yl)ethan-1-ol]
- MIC [2]: 2 µg/mL (≈ 4.26 µM)
- MIC [3]: 1 µg/mL (≈ 2.13 µM)
- IC50 [1]: 25.8 nM

Compound: C[C@H](O)c1nccn1Cc1cc(-c2ccc(C#CC3=CCN(CCC#N)CC3)cc2)on1 [Example 44, (S)-3-(4-((4-(3-((2-(1-hydroxyethyl)-1H-imidazol-1-yl)methyl)isoxazol-5-yl)phenyl)ethynyl)-3,6-dihydropyridin-1(2H)-yl)propanenitrile]
- MIC [2]: 1 µg/mL (≈ 2.34 µM)
- MIC [3]: 0.5 µg/mL (≈ 1.17 µM)
- IC50 [1]: 24.9 nM

Compound: C[C@H](O)c1nccn1Cc1cc(-c2ccc(C#CC3=CCN(C(=O)c4cccnc4)CC3)cc2)on1 [Example 45, (S)-(4-((4-(3-((2-(1-hydroxyethyl)-1H-imidazol-1-yl)methyl)isoxazol-5-yl)phenyl)ethynyl)-3,6-dihydropyridin-1(2H)-yl)(pyridin-3-yl)methanone]
- MIC [2]: 1 µg/mL (≈ 2.09 µM)
- MIC [3]: 0.5 µg/mL (≈ 1.04 µM)
- IC50 [1]: 12.3 nM

Compound: C[C@H](O)c1nccn1Cc1cc(-c2ccc(C#CC3CC4(C3)CN(Cc3ncc[nH]3)C4)cc2)on1 [Example 46, (S)-1-(1-((5-(4-((2-((1H-imidazol-2-yl)methyl)-2-azaspiro[3.3]heptan-6-yl)ethynyl)phenyl)isoxazol-3-yl)methyl)-1H-imidazol-2-yl)ethan-1-ol]
- IC50 [1]: 21.5 nM

Compound: C[C@H](O)c1nccn1Cc1cc(-c2ccc(C#CC3CC4(C3)CN(C(=O)NCCO)C4)cc2)on1 [Example 50, (S)-N-(2-hydroxyethyl)-6-((4-(3-((2-(1-hydroxyethyl)-1H-imidazol-1-yl)methyl)isoxazol-5-yl)phenyl)ethynyl)-2-azaspiro[3.3]heptane-2-carboxamide]
- IC50 [1]: 23.5 nM

Compound: C[C@H](O)c1nccn1Cc1cc(-c2ccc(C#CC3CC4(C3)CN(C(=O)N3CCC(O)CC3)C4)cc2)on1 [Example 51, (S)-(6-((4-(3-((2-(1-hydroxyethyl)-1H-imidazol-1-yl)methyl)isoxazol-5-yl)phenyl)ethynyl)-2-azaspiro[3.3]heptan-2-yl)(4-hydroxypiperidin-1-yl)methanone]
- IC50 [1]: 15.1 nM

Compound: C[C@H](O)c1nccn1Cc1cc(-c2ccc(C#CC3CC4(C3)CN(C(=O)C3CCNC(=O)C3)C4)cc2)on1 (stereo partly drawn) [Example 54, 4-(6-((4-(3-((2-((S)-1-hydroxyethyl)-1H-imidazol-1-yl)methyl)isoxazol-5-yl)phenyl)ethynyl)-2-azaspiro[3.3]heptane-2-carbonyl)piperidin-2-one]
- IC50 [1]: 15.5 nM

Compound: C[C@H](O)c1nccn1Cc1cc(-c2ccc(C#CC3CC4(C3)CN(C(=O)c3ncn[nH]3)C4)cc2)on1 [Example 55, (S)-(6-((4-(3-((2-(1-hydroxyethyl)-1H-imidazol-1-yl)methyl)isoxazol-5-yl)phenyl)ethynyl)-2-azaspiro[3.3]heptan-2-yl)(1H-1,2,4-triazol-5-yl)methanone]
- MIC [2]: 2 µg/mL (≈ 4.14 µM)
- MIC [3]: 2 µg/mL (≈ 4.14 µM)
- IC50 [1]: 14.7 nM
